Like-named read-outs stand apart in the source and are kept apart here.
Legend:
in vivo [1] = conditions: rat; for Pentamidine concentration, Kidney: aerosol 0.4 mg/kg/day, 24 h after last dose
Experimental: (§1) Rats were treated in groups of four. […] Doses in all trials were calculated as above.

in vivo [2] = assay: in vivo
Experimental: The dose was calculated from the product of the concentration of the drug in the chamber, the minute volume of the rats (lung vol.×resp. rate), and the time of exposure. In all experiments exposure time was 15 min, male Sprague-Dawley rats with an average weight of 250 g were used, and the minute volume of the rats was assumed to be 70 ml. Rats were treated in groups of four. […] The aerosol was generated by oxygen flowing at 8 l/min through the nebulizer (Cadema Medical Products, part no. CA 61, Middletown, N.Y.). The drug solution was aerosolized at 0.3 ml/min with an expected mean particle diameter of 0.5-0.8 micron. […] This concentration multiplied by the minute volume and the exposure time gives a dose of 1.0 mg; since the rats weighed 0.25 kg, the dose was 4.0 mg/kg. Doses in all trials were calculated as above.
Four rats were studied at each time.

in vivo [3] = conditions: rat; for concentration at 24 h: inhaled or intranasal, 3.2 mg/kg/day, aerosol 3.2 mg/kg daily × 4, 24 h after last dose
Experimental: as §1
Treatments were well-tolerated. […] There were rare foci of mild thickening of interalveolar septae containing a few histiocytes and some congestion. […] These were also seen in sections from control animals and are common findings in normal rat lung.

[4] = human, in vivo
Source text: Patients were 18 years old or older and outpatients judged free of any imminently-critical medical problems. All patents received a complete physical examination and medical history evaluation. Pretreatment laboratory studies included a CBC with differential and platelet count, a biochemical screening profile, chest X-ray, and pulmonary function tests including spirometry and measurement of diffusion capacity.
Each patient was issued a device at the start of the study. These devices were labeled with the patient's code number. The devices are simple to operate and their sterility was ensured as components were replaced after a single use. New sterile plastic reservoirs for the drug solution and new sterile suction rods were used for each treatment.
Each aerosol treatment was given over 15-30 minutes. […] 1.0, 1.5,or 2.0 ml aliquots were added to the nebulizer reservoir for doses of 30, 45, or 60 mg, respectively. Sterile pyrogen-free water was added to yield a total volume of 3.0 ml. Treatments were administered by a physician or registered nurse.
Signs of systemic toxicity were monitored. To detect adverse effects on the lungs, pulmonary function was monitored.
All problems were judged a concomitant illness or adverse reaction based on the following definitions. […]
Patients were interviewed before and after each treatment and any adverse reactions, complaints, or comments recorded. […]

Pneumocystis carinii [5] = conditions: patients with AIDS, IV or IM 4 mg/kg/day, 14-21 days; cited from earlier work
[6] = tested on: African trypanosomiasis (sleeping sickness); conditions: cited from earlier work
Pneumocystis carinii [7] = conditions: animal model of PCP; cited from earlier work
in vivo [8] = conditions: rat, im, 4 mg/kg, level in the lungs
Experimental: Intramuscular (IM) doses were administered to the hindcalves of male Sprague-Dawley rats (240-260 g, Charles River Breeding Laboratories, Wilmington, Mass.).
Animals were sacrificed at 24 h after the last dose.

[9] = rat, aerosol doses greatly exceeding the therapeutic dose; cited from earlier work
[10] = cited from earlier work
[11] = Pentamidine tissue concentrations in humans after intravenous infusions; conditions: human, IV 4.0 mg/kg/day
[12] = rat, in vivo, inhaled or intranasal, 4 mg/kg

Structure (SMILES): N=C(N)c1ccc(OCCCCCOc2ccc(C(=N)N)cc2)cc1 [pentamidine, Pentamidine isethionate]
- Pentamidine concentration, Kidney (in vivo [1]; 1 dose): NMA
- Pentamidine concentration, Kidney (in vivo [1]; 2 doses): NMA
- Pentamidine concentration, Kidney (in vivo [1]; 4 doses): NMA
- concentration at 24 h (in vivo [1]; in vivo, inhaled or intranasal, 0.4 mg/kg/day, levels in the lung): 60500 ng/g
- amount retained per animal (in vivo [2]; rat, in vivo, 4 mg/kg): 60 µg
- fraction of inhaled drug retained (in vivo [2]; rat, in vivo, 4 mg/kg): about 6.0%
- retained dose (in vivo [2]; rat, in vivo, 4 mg/kg): 0.24 mg/kg
- amount of drug retained in the lungs (in vivo [2]; [12]): about 40 mcg/g
- half-life (in vivo [2]; [12]): 36 days
- retention in the lungs (in vivo [2]; single aerosol dose): retained in the lungs for many weeks
- concentration at 24 h (in vivo [3]; kidney): 7200 ng/g
- concentration at 24 h (in vivo [3]; lung): 291000 ng/g
- lung weight and appearance (in vivo [3]; aerosol 3.2 mg/kg daily × 4): normal in weight and appearance
- toxicity of high lung concentrations (in vivo [3]; aerosol 3.2 mg/kg daily × 4): little or no toxicity
- tolerability of treatments (in vivo [3]; aerosol 3.2 mg/kg daily × 4 (total dose 12.8 mg/kg)): well-tolerated
- histopathology of lungs (in vivo [3]; aerosol 3.2 mg/kg daily × 4, stained sections): no histopathologic changes were found
- tolerability of treatments [4]: well tolerated
- treatment of PCP infection (Pneumocystis carinii [5]): highly effective in treatment of PCP infection
- resistance to infection after a single IM dose ([6]; human volunteers, weekly bites from infected tse-tse flies): resisted infection for one year or more
- chemoprophylaxis of African trypanosomiasis ([6]; human): effective in the chemoprophylaxis of African trypanosomiasis
- elimination of infection in endemic areas ([6]; twice-yearly IV or IM doses, Africa): eliminated the infection in endemic areas
- prophylaxis of PCP with IV or IM pentamidine (Pneumocystis carinii [7]): unsuccessful in the animal model of PCP
- concentration at 24 h (in vivo [8]): 800 ng/g
- toxicity in histopathologic sections from the lungs [9]: No toxicity was seen
- elimination from blood ([10]; IV or IM): eliminated rapidly from blood
- elimination from tissues ([10]; in vivo): eliminated slowly from them
- Pentamidine concentration, Adrenal ([11]; 1 dose): 19 µg/g
- Pentamidine concentration, Kidney ([11]; 1 dose): 8.5 µg/g
- Pentamidine concentration, Liver ([11]; 1 dose): 35 µg/g
- Pentamidine concentration, Spleen ([11]; 1 dose): 40 µg/g
- Pentamidine concentration, Kidney ([11]; 2 doses): 13 µg/g
- Pentamidine concentration, Liver ([11]; 2 doses): 23 µg/g
- Pentamidine concentration, Spleen ([11]; 2 doses): 40 µg/g
- Pentamidine concentration, Kidney ([11]; 5 doses): 62 µg/g
- Pentamidine concentration, Liver ([11]; 5 doses): 112 µg/g
- Pentamidine concentration, Lung ([11]; 5 doses): 42 µg/g
- Pentamidine concentration, Spleen ([11]; 5 doses): 28 µg/g
- Pentamidine concentration, Adrenal ([11]; 15 doses): 92 µg/g
- Pentamidine concentration, Kidney ([11]; 15 doses): 123 µg/g
- Pentamidine concentration, Liver ([11]; 15 doses): 300 µg/g
- Pentamidine concentration, Lung ([11]; 15 doses): 56 µg/g
- Pentamidine concentration, Spleen ([11]; 15 doses): 368 µg/g
